Results from patent publication US10647710B2, “Thiazole derivative and applications thereof” (Medshine Discovery Inc., priority 2017, dated 2020).

Tested on: not listed separately
Experiment: Pharmacokinetics of compounds in mice in vivo
Conditions: male, mouse, in vivo; Balb/c mice, oral administration (gavage) 1.0 mg/kg; read-out: Bioavailability F
Method: Objective: To test the pharmacokinetics of compounds in mice in vivo.
Balb/c mice (male, 18-22 g, 6-8 weeks old, Shanghai Slack)
The pharmacokinetics profile of the compound in rodent was tested using a standard protocol after intravenous and oral administrations. The candidate compound was prepared as a corresponding solution, which was administered as a single intravenous injection (1.0 mg/kg, 5% DMSO/95% 20% hydroxypropyl-β-cyclodextrin) or gavage (1.0 mg/kg, 0.5% methyl Cellulose MC4000). The whole blood samples were collected within 24 hours, centrifuged at 3000 g for 15 minutes, and plasma samples were obtained by separating the supernatant. 4 times volume of acetonitrile solution containing an internal standard was added to precipitate proteins. After centrifugation, the supernatant was collected, to which an equal volume of water was added, and further centrifuged to collect the supernatant. The LC-MS/MS analysis method was used to quantitatively analyze the plasma concentration, and the pharmacokinetics parameters, such as peak concentration, peak time, clearance rate, half-life, area under the curve, and bioavailability were calculated.

Row | SMILES | bioavailability
1 | Cc1nc(N(C)C(=O)Cc2ccc(-c3ccccn3)cc2)sc1S(N)(=O)=O [Pritelivir, reference compound] | 100%

Same assay, conditions: male, mouse, in vivo; Balb/c mice, oral administration (gavage) 1.0 mg/kg; read-out: Concentration Integral AUC

Row | SMILES | AUC
2 | Cc1nc(N(C)C(=O)Cc2ccc(-c3ccccn3)cc2)sc1S(N)(=O)=O [Pritelivir, reference compound] | 129 µM·h

Same assay, conditions: male, mouse, in vivo; Balb/c mice, single intravenous injection 1.0 mg/kg

Row | SMILES | clearance
3 | Cc1nc(N(C)C(=O)Cc2ccc(-c3ccccn3)cc2)sc1S(N)(=O)=O [Pritelivir, reference compound] | 0.4 mL/min/kg

Same assay, conditions: male, mouse, plasma; Balb/c mice, oral administration (gavage) 1.0 mg/kg; read-out: Bioavailability F

Row | SMILES | bioavailability
4 | Cc1nc(N(C)C(=O)C2Cc3ccc(-c4ccccn4)cc3C2)sc1S(N)(=O)=O (single isomer, unassigned) [WX037] | 75%

Same assay, conditions: male, mouse, plasma; Balb/c mice, oral administration (gavage) 1.0 mg/kg; read-out: Concentration Integral AUC

Row | SMILES | AUC
5 | Cc1nc(N(C)C(=O)C2Cc3ccc(-c4ccccn4)cc3C2)sc1S(N)(=O)=O (single isomer, unassigned) [WX037] | 24.4 µM·h

Same assay, conditions: male, mouse, plasma; Balb/c mice, single intravenous injection 1.0 mg/kg

Row | SMILES | clearance
6 | Cc1nc(N(C)C(=O)C2Cc3ccc(-c4ccccn4)cc3C2)sc1S(N)(=O)=O (single isomer, unassigned) [WX037] | 1.2 mL/min/kg

Same assay, conditions: male, mouse, plasma; Balb/c mice, single intravenous injection 1.0 mg/kg; read-out: Half life T1/2 (converted)

Row | SMILES | half-life
7 | Cc1nc(N(C)C(=O)C2Cc3ccc(-c4ccccn4)cc3C2)sc1S(N)(=O)=O (single isomer, unassigned) [WX037] | 6 h

Tested on: herpes simplex virus type 1 (HSV-1) GHSV-UL46 strain
Experiment: HSV-1 cytopathic effect (CPE) assay
Format: cell-based
Conditions: Human alphaherpesvirus 1, Vero C1008, in Chlorocebus sabaeus, 120 h, read-out: HSV-1 cytopathic effect EC50, HSV-1 GHSV-UL46 in Vero E6 cells, 5 days culture, CCK8 readout
Method: To evaluate the antiviral activity of compounds against the herpes simplex virus type 1 (HSV-1) GHSV-UL46 strain in the cytopathic effect (CPE) assay.
Virus: HSV-1 GHSV-UL46, ATCC # VR-1544
Cells: African green monkey kidney cell Vero E6, obtained from Wuhan Institute of Virology, Chinese Academy of Sciences.
1.4. The cells were diluted to 1.33×10^5 cells/ml using cytopathic assay medium. The diluted cell suspension was added to a 384-well plate (Corning #3701) by using Multidrop, and 30 μl of the diluted cell suspension (4000 cells) per well were added.
2.2. Compounds were added to cell-inoculated 384-well plates using an ECHO 555 liquid workstation. Eight concentrations were tested in duplicate for each assay compound. For the cell control wells, neither compound nor virus was added. For the virus control wells, no compound was added. The final concentration of DMSO in all the wells was 0.5%.
2.3. The virus was diluted with the assay medium at an inoculation amount of 1.5 TCID90/well, 30 μl. The assay medium was added to the cell control wells with Multidrop, 30 μl per well. Then the diluted virus was added to the compound test wells and the virus control wells with Multidrop, 30 μl per well.
2.4. The cell plates were placed and cultured in a 37° C., CO2 cell incubator for 5 days.
3.2. CCK8 was added to the cell plate with Multidrop, 6 μl per well.
3.4. The absorbance of each well of the cell plate was read with a microplate reader at a wavelength of 450 nm, and 630 nm was used as the reference wavelength. The raw data were obtained by substrating the absorbance at 630 nm from the absorbance at 450 nm (Raw data=OD450-OD630).
4.1. The antiviral activity (% Inhibition) of the assay compound was calculated using the following equation: […]
wherein, Sample is the absorbance of the compound test well; cell control is the average of the absorbances of the cell control wells; and virus control is the average of the absorbances of the virus control wells.
4.2. Dose-response curves were plotted using GraphPad Prism software and the half maximal effective concentration (EC50) of the assay compounds was determined.

Row | SMILES | EC50
8 | Cc1nc(N(C)C(=O)C2Cc3ccc(-c4ccccn4)cc3C2)sc1S(N)(=O)=O (single isomer, unassigned) [WX037] | 0.007 µM
9 | Cc1nc(N(C)C(=O)[C@@H]2CCc3cc(-c4ccccn4)ccc32)sc1S(N)(=O)=O [WX017] | 0.046 µM
10 | Cc1nc(N(C)C(=O)[C@H]2CCc3cc(-c4ccccn4)ccc32)sc1S(N)(=O)=O [WX018] | 0.25 µM
11 | Cc1nc(N(C)C(=O)[C@@H]2CCCc3cc(-c4ccccn4)ccc32)sc1S(N)(=O)=O [WX030] | 0.95 µM
12 | Cc1nc(N(C)C(=O)[C@H]2CCCc3cc(-c4ccccn4)ccc32)sc1S(N)(=O)=O [WX031] | 0.77 µM
13 | Cc1nc(N(C)C(=O)C2Cc3ccc(-c4ccccn4)cc3C2)sc1S(N)(=O)=O (centres unmarked) [WX036] | > 1 µM
14 | Cc1nc(N(C)C(=O)N2Cc3ccc(-c4ccccn4)cc3C2)sc1S(N)(=O)=O [WX042] | 0.042 µM
15 | Cc1nc(N(C)C(=O)C2Cc3ccc(-c4ccccn4)cc3C2)sc1S(=O)(=O)NC1CC1 (centres unmarked) [WX043] | 0.009 µM
16 | CC(=O)OCC1(C(=O)N(C)c2nc(C)c(S(N)(=O)=O)s2)Cc2ccc(-c3ccccn3)cc2C1 (centres unmarked) [WX072] | 0.36 µM
17 | Cc1nc(N(C)C(=O)C2(CO)Cc3ccc(-c4ccccn4)cc3C2)sc1S(N)(=O)=O (centres unmarked) [WX073] | 0.12 µM
18 | Cc1nc(N(C)C(=O)C2(C)Cc3ccc(-c4ccccn4)cc3C2)sc1S(N)(=O)=O (centres unmarked) [WX074] | 0.043 µM
19 | Cc1nc(N(C)C(=O)N2CCc3ccc(-c4ccccn4)cc3C2)sc1S(N)(=O)=O [WX128] | 0.14 µM
20 | COc1cccc(-c2ccc3c(c2)CC(C(=O)N(C)c2nc(C)c(S(N)(=O)=O)s2)C3)n1 (centres unmarked) [WX129] | 0.046 µM
21 | Cc1nc(N(C)C(=O)C2Cc3ccc(-c4nccs4)cc3C2)sc1S(N)(=O)=O (centres unmarked) [WX130] | 0.017 µM
22 | Cc1nc(N(C)C(=O)C2COc3ccc(-c4ccccn4)cc3C2)sc1S(N)(=O)=O (centres unmarked) [WX131] | 0.13 µM
23 | Cc1nc(N(C)C(=O)C2CCc3ccc(-c4ccccn4)cc3C2)sc1S(N)(=O)=O (centres unmarked) [WX133] | 0.14 µM
24 | Cc1nc(N(C)C(=O)C2Cc3ccc(-c4cccc(N(C)C)n4)cc3C2)sc1S(=O)(=O)NC1CC1 (centres unmarked) [WX142] | 0.15 µM
25 | Cc1nc(N(C)C(=O)C2Cc3ccc(Oc4ccccn4)cc3C2)sc1S(N)(=O)=O (centres unmarked) [WX144] | 0.41 µM
26 | Cc1cccc(-c2ccc3c(c2)C[C@@H](C(=O)N(C)c2nc(C)c(S(N)(=O)=O)s2)C3)n1 [WX146] | 0.012 µM
27 | Cc1cccc(-c2ccc3c(c2)C[C@H](C(=O)N(C)c2nc(C)c(S(N)(=O)=O)s2)C3)n1 [WX147] | 0.78 µM
28 | Cc1nc(N(C)C(=O)[C@H]2Cc3ccc(-c4cccc(N(C)C)n4)cc3C2)sc1S(N)(=O)=O [WX148] | 0.044 µM
29 | Cc1nc(N(C)C(=O)[C@@H]2Cc3ccc(-c4cccc(N(C)C)n4)cc3C2)sc1S(N)(=O)=O [WX149] | 0.55 µM
30 | Cc1nc(N(C)C(=O)[C@H]2Cc3ccc(-c4cccc(N)n4)cc3C2)sc1S(N)(=O)=O [WX150] | 0.012 µM
31 | Cc1nc(N(C)C(=O)[C@@H]2Cc3ccc(-c4cccc(N)n4)cc3C2)sc1S(N)(=O)=O [WX151] | 0.23 µM
32 | Cc1nc(N(C)C(=O)[C@H]2Cc3ccc(-c4cccc(N)n4)cc3C2)sc1S(=O)(=O)NC1CC1 [WX152] | 0.007 µM
33 | Cc1nc(N(C)C(=O)[C@@H]2Cc3ccc(-c4cccc(N)n4)cc3C2)sc1S(=O)(=O)NC1CC1 [WX153] | 0.81 µM
34 | Cc1nc(N(C)C(=O)[C@H]2Cc3ccc(-c4ncccc4F)cc3C2)sc1S(N)(=O)=O [WX154] | 0.31 µM
35 | Cc1nc(N(C)C(=O)[C@@H]2Cc3ccc(-c4ncccc4F)cc3C2)sc1S(N)(=O)=O [WX155] | 0.024 µM
36 | Cc1nc(N(C)C(=O)C2Cc3cc(Cl)c(-c4ccccn4)cc3C2)sc1S(N)(=O)=O (centres unmarked) [WX156] | 0.65 µM

Same assay, conditions: read-out: HSV-1 cytopathic effect EC50; HSV-1 GHSV-UL46 in Vero E6 cells, 5 days culture, CCK8 readout

Row | SMILES | EC50
37 | Cc1nc(N(C)C(=O)C2Cc3cc(F)c(-c4ccccn4)cc3C2)sc1S(N)(=O)=O (centres unmarked) [WX158] | > 1 µM
38 | Cc1nc(N(C)C(=O)C2Cc3cc(F)c(-c4ccccn4)cc3C2)sc1S(N)(=O)=O (centres unmarked) [WX159] | 0.017 µM
